Results: paper PMC11984407, “A natural small molecule isoginkgetin alleviates hypercholesterolemia and atherosclerosis by targeting ACLY” (Theranostics, 2025)

Columns and labels:
ACLY = target: T1, ACLY (Mesocricetus auratus, UniProt A0A1U7RF50); test: ACLY activity in vivo, hamster liver extracts (MDH-coupled method)
T1 construct: from tissue; host or cells: liver of hamsters and of Ldlr-/- hamsters dosed with ISOGK
T1 sequence (A0A1U7RF50 1-1101): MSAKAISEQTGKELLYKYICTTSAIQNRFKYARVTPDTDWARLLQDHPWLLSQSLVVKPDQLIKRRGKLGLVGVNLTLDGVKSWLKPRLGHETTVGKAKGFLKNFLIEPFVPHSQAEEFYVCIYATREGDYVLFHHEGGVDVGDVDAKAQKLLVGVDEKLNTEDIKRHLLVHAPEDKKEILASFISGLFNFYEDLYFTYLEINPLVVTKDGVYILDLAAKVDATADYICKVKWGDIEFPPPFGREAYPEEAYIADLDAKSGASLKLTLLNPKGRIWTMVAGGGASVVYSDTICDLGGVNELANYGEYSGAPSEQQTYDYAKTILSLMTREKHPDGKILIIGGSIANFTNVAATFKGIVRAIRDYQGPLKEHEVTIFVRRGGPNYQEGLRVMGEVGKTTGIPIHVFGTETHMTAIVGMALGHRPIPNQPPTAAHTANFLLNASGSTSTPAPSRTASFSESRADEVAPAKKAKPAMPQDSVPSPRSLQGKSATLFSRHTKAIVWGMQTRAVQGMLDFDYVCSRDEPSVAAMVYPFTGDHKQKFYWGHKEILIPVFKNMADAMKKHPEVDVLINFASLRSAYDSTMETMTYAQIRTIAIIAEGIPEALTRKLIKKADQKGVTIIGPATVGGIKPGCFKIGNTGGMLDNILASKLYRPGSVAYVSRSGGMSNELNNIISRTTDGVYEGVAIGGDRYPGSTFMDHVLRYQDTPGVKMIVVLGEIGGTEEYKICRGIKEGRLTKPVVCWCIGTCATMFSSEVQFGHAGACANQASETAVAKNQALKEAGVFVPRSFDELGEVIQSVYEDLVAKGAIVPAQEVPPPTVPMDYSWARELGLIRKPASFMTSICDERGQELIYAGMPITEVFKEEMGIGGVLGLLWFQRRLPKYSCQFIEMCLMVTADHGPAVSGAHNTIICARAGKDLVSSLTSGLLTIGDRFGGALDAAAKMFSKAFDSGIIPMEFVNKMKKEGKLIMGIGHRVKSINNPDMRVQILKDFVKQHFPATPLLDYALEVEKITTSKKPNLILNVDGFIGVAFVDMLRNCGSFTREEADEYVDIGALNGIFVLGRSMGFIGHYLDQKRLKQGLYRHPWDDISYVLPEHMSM
Protocol: The activity of the ACLY enzyme was assayed utilizing malate dehydrogenase (MDH)-coupled method kits (BC4240, Solarbio, Beijing, China). In summary, liver extracts were incubated in a reaction buffer comprising 20 mM citrate, 10 mM MgCl₂, 10 mM DTT, 0.5 U/ml of malic dehydrogenase, 0.33 mM CoASH, and 0.14 mM NADH, both in the presence and absence of 5 mM ATP. The quantity of oxaloacetate produced by ACLY catalysis was determined by measuring the alteration in absorbance at 340 nm, which corresponds to the depletion of NADH during the MDH-catalyzed reaction. After accounting for background variations in absorbance in the absence of ATP, the relative ACL activities were computed by normalizing the data to the weight of the liver tissue.

[1] = test system: primary mouse hepatocytes; test: Nile Red staining of primary hepatocytes from high fat diet mice; type: cell-based; conditions: varying concentrations, 12 h, hepatocytes from 16-week high fat diet mice
From the text: Primary hepatocytes were isolated from male C57BL/6J mice fed a high-fat diet (HFD, 60 kcal% fat, 20 kcal% protein, 20 kcal% carbohydrate; D12492; RESEARCH DIETS, New Brunswick, NJ, USA) for 16 weeks according to our previous study. At the end of experiment, the mice were initially anaesthetized and subsequently subjected to perfusion with Liver Perfusion Medium (17701-038; Thermo Fisher Scientific, Waltham, MA, USA) via the portal vein, followed by Liver Digestion Medium (17701-034, Thermo Fisher Scientific, Waltham, MA, USA). Following perfusion, the liver was extracted and passed through a 100 μm cell strainer. The resulting cells were subjected to centrifugation at 50×g for 1 min, after which cells were incubated in DMEM supplemented with 10% FBS (F05-001-B160216; Bio-One Biotechnology, Guangzhou, China) and 1% penicillin-streptomycin (15140-122; Gibco by Invitrogen, Carlsbad, CA, USA) at 37 °C.
For the Nile Red staining procedure, primary mouse hepatocytes were treated with IOSGK at varying concentrations for a period of 12 h. Subsequently, the cells were fixed with 4% paraformaldehyde (PFA) and stained with Nile Red (N1142, Invitrogen, Carlsbad, CA, USA). The intracellular accumulation of lipids was visualized and quantified using a laser scanning confocal microscope (TCS SP8; Leica, Wetzlar, Germany).

For `COc1ccc(-c2cc(=O)c3c(O)cc(O)c(-c4cc(-c5cc(=O)c6c(O)cc(O)cc6o5)ccc4OC)c3o2)cc1` [ISOGK, Isoginkgetin], the “ACLY enzyme activity in liver tissue” value (ACLY; Ldlr-/- hamsters) was “significantly inhibits ACLY activity”, the “ACLY enzyme activity in liver tissue” value (ACLY; high cholesterol diet hamsters, 4 weeks) was “significantly inhibits ACLY activity” and the “hepatic lipid levels (Nile Red staining)” value [1] was “reduced hepatic lipid levels”.
